In general, pEC50 refers to the negative decadic logarithm of the EC50, by convention in mol/L. A higher pEC50 goes with a low EC50.

Each structure is given as a SMILES string.

This assay concerns the target T1, human ferroportin (Homo sapiens, UniProt Q9NP59).
T1 construct: luciferase reporter (read with the Nano-Glo Luciferase Assay System); expressed in transfected cells; host or cells: CHO cells, stably transfected, expression induced with doxycycline
T1 sequence (Q9NP59 1-571): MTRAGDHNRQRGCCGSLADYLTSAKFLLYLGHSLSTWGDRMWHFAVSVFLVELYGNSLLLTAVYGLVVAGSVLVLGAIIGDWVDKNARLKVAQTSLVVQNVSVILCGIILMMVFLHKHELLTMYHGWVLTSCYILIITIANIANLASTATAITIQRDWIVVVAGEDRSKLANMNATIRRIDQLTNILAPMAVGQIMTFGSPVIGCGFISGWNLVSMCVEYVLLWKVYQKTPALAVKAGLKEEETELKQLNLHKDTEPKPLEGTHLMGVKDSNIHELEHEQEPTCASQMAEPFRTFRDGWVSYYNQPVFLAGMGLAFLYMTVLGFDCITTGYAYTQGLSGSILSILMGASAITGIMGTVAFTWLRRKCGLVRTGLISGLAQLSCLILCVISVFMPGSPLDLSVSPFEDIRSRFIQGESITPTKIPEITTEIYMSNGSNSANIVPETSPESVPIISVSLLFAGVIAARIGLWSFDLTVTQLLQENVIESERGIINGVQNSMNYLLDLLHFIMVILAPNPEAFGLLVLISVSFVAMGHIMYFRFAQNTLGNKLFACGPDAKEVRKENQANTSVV
As to the kind of experiment: Biological in-vitro ferroportin internalization assay (luciferase reporter). It is filed as cell-based. Particulars: average pEC50; stably-transfected CHO cell line expressing human ferroportin tagged to a luciferase reporter; 6 h incubation with test compound. The procedure, abridged: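 Read-out is Nano-Glo luciferase signal after 6 h compound exposure, with average pEC50 derived. Cells are a stable CHO line carrying luciferase-tagged human ferroportin, pre-loaded 24 h with ferric ammonium citrate and doxycycline-induced for 24 h.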
In general terms: In a reporter assay the amount or activity of a reporter protein is the signal.
In turn, `CN(CC(=O)NC(C)(C)C)c1nc(-c2nccn2C)nc2c1CCC2` [Compound 162, N-tert-butyl-2-{methyl[2-(1-methyl-1H-imidazol-2-yl)-5H,6H,7H-cyclopenta[d]pyrimidin-4-yl]amino}acetamide] returned a negative-log EC50 (pEC50) of 5.7.

For `CN(CC(=O)NC(C)(C)C)c1nc(-c2cocn2)nc2c1CCC2` [Compound 163, N-tert-butyl-2-{methyl[2-(1,3-oxazol-4-yl)-5H,6H,7H-cyclopenta[d]pyrimidin-4-yl]amino}acetamide], the pEC50 was determined as 5.4.

The molecule `CN(CC(=O)NC(C)(C)C)c1nc(-c2cc3ccccc3cn2)nc2c1CCC2` [Compound 165, N-tert-butyl-2-{[2-(isoquinolin-3-yl)-5H,6H,7H-cyclopenta[d]pyrimidin-4-yl](methyl)amino}acetamide] yielded a pEC50 of 7.4.

`CN(CC(=O)NC(C)(C)C)c1nc(-c2cn3ccccc3n2)nc2c1CCC2` [Compound 166, N-tert-butyl-2-[(2-{imidazo[1,2-a]pyridin-2-yl}-5H,6H,7H-cyclopenta[d]pyrimidin-4-yl)(methyl)amino]acetamide]: the pEC50 stood at 6.7.

For `CN(CC(=O)Nc1cccc(F)c1)c1nc(-c2cc(OCCO)ccn2)nc2c1CCC2` [Compound 167, N-(3-fluorophenyl)-2-({2-[4-(2-hydroxyethoxy)pyridin-2-yl]-5H,6H,7H-cyclopenta[d]pyrimidin-4-yl}(methyl)amino)acetamide], the pEC50 is 7.9.

Turning to `COc1ccnc(-c2nc3c(c(N(C)CC(=O)N[C@H]4CCCC[C@H]4O)n2)CCC3)c1` [Compound 169, N-[(1S,2R)-2-hydroxycyclohexyl]-2-{[2-(4-methoxypyridin-2-yl)-5H,6H,7H-cyclopenta[d]pyrimidin-4-yl](methyl)amino}acetamide], the pEC50 amounted to 7.3.

`COc1ccnc(-c2nc3c(c(N(C)CC(=O)N[C@H]4CCC[C@H]4O)n2)CCC3)c1` [Compound 171, N-[(1S,2R)-2-hydroxycyclopentyl]-2-{[2-(4-methoxypyridin-2-yl)-5H,6H,7H-cyclopenta[d]pyrimidin-4-yl](methyl)amino}acetamide] came in with a pEC50 of 7.2.

As for `CN(CC(=O)NC(C)(C)C)c1nc(-c2cc(OCC(C)(C)O)ccn2)nc2c1CCC2` [Compound 174, N-tert-butyl-2-({2-[4-(2-hydroxy-2-methylpropoxy)pyridin-2-yl]-5H,6H,7H-cyclopenta[d]pyrimidin-4-yl}(methyl)amino)acetamide], the negative-log EC50 (pEC50) is given as 8.2.

For the molecule `CN(CC(=O)NC(C)(C)C)c1nc(-c2cc3[nH]ncc3cn2)nc2c1CCC2` [Compound 176, N-tert-butyl-2-[methyl(2-{1H-pyrazolo[4,3-c]pyridin-6-yl}-5H,6H,7H-cyclopenta[d]pyrimidin-4-yl)amino]acetamide], the pEC50 amounted to 7.8.

`CN(CC(=O)Nc1cnn(C)c1)c1nc(-c2cc(OCC(F)(F)F)ccn2)nc2c1CCC2` [Compound 177, 2-[methyl({2-[4-(2,2,2-trifluoroethoxy)pyridin-2-yl]-5H,6H,7H-cyclopenta[d]pyrimidin-4-yl})amino]-N-(1-methyl-1H-pyrazol-4-yl)acetamide] yielded a pEC50 of 6.9.

Molecule `COc1ccnc(-c2nc3c(c(N(C)CC(=O)Nc4cncnc4)n2)CCC3)c1` [Compound 178] had a negative logarithm of the EC50 (pEC50) of 7.2.

In turn, `CN(CC(=O)NC1(C)CCCC1)c1nc(-c2cc(OCCO)ccn2)nc2c1CCC2` [Compound 179, 2-({2-[4-(2-hydroxyethoxy)pyridin-2-yl]-5H,6H,7H-cyclopenta[d]pyrimidin-4-yl}(methyl)amino)-N-(1-methylcyclopentyl)acetamide] registered a pEC50 of 7.7.

Molecule `COc1cccnc1-c1nc2c(c(N(C)CC(=O)NC(C)(C)C)n1)CCC2` [Compound 180, N-tert-butyl-2-{[2-(3-methoxypyridin-2-yl)-5H,6H,7H-cyclopenta[d]pyrimidin-4-yl](methyl)amino}acetamide] returned a pEC50 of 5.2.

`CN(CC(=O)NC(C)(C)C)c1nc(-c2ncccc2O)nc2c1CCC2` [Compound 181, N-tert-butyl-2-{[2-(3-hydroxypyridin-2-yl)-5H,6H,7H-cyclopenta[d]pyrimidin-4-yl](methyl)amino}acetamide] registered a pEC50 of 6.5.

`CN(CC(=O)NC(C)(C)C)c1nc(-c2c[nH]cn2)nc2c1CCC2` [Compound 182, N-tert-butyl-2-{[2-(1H-imidazol-4-yl)-5H,6H,7H-cyclopenta[d]pyrimidin-4-yl](methyl)amino}acetamide] returned a pEC50 of 7.6.

As to `C[C@H](C(=O)NC(C)(C)C)N(C)c1nc(-c2cc3cn[nH]c3cn2)nc2c1CCC2` [Compound 183, (2R)—N-tert-butyl-2-[methyl(2-{1H-pyrazolo[3,4-c]pyridin-5-yl}-5H,6H,7H-cyclopenta[d]pyrimidin-4-yl)amino]propanamide], the negative-log EC50 (pEC50) was determined as 8.

Consider `CN(CC(=O)NC1(C)CCCC1)c1nc(-c2cc3cn[nH]c3cn2)nc2c1CCC2` [Compound 184, 2-[methyl(2-{1H-pyrazolo[3,4-c]pyridin-5-yl}-5H,6H,7H-cyclopenta[d]pyrimidin-4-yl)amino]-N-(1-methylcyclopentyl)acetamide], for which the negative logarithm of the EC50 (pEC50) turned out to be 7.7.

In the case of `CN(CC(=O)NC1(C)CCOC1)c1nc(-c2cc3cn[nH]c3cn2)nc2c1CCC2` (stereo not drawn) [Compound 185, 2-[methyl(2-{1H-pyrazolo[3,4-c]pyridin-5-yl}-5H,6H,7H-cyclopenta[d]pyrimidin-4-yl)amino]-N-(3-methyloxolan-3-yl)acetamide], the pEC50 turned out to be 7.2.

As for `COc1ncc(NC(=O)CN(C)c2nc(-c3cn(C)cn3)nc3c2CCC3)cn1` [Compound 186, N-(2-methoxypyrimidin-5-yl)-2-{methyl[2-(1-methyl-1H-imidazol-4-yl)-5H,6H,7H-cyclopenta[d]pyrimidin-4-yl]amino}acetamide], the pEC50 was determined as 7.

As to `COc1ccc(NC(=O)CN(C)c2nc(-c3cc(OCCO)ccn3)nc3c2CCC3)cn1` [Compound 187, 2-({2-[4-(2-hydroxyethoxy)pyridin-2-yl]-5H,6H,7H-cyclopenta[d]pyrimidin-4-yl}(methyl)amino)-N-(6-methoxypyridin-3-yl)acetamide], the negative logarithm of the EC50 (pEC50) was 7.9.

Molecule `COc1ccc(N2CCCN(c3nc(-c4ccccn4)nc4c3CCC4)CC2=O)cc1` [Compound 188, 1-(4-methoxyphenyl)-4-[2-(pyridin-2-yl)-5H,6H,7H-cyclopenta[d]pyrimidin-4-yl]-1,4-diazepan-2-one] showed a pEC50 of 6.7.

Turning to `COc1ccnc(-c2nc3c(c(N(C)CC(=O)Nc4ccc(F)cc4)n2)CCC3)c1` [Compound 189, N-(4-fluorophenyl)-2-{[2-(4-methoxypyridin-2-yl)-5H,6H,7H-cyclopenta[d]pyrimidin-4-yl](methyl)amino}acetamide], the pEC50 is 7.7.

As for `COc1ccc(NC(=O)CN(C)c2nc(-c3cn(C)cn3)nc3c2CCC3)nc1` [Compound 190, N-(5-methoxypyridin-2-yl)-2-{methyl[2-(1-methyl-1H-imidazol-4-yl)-5H,6H,7H-cyclopenta[d]pyrimidin-4-yl]amino}acetamide], the negative-log EC50 (pEC50) stood at 7.8.

For the molecule `Cc1cnc(-c2nc3c(c(N(C)CC(=O)NC(C)(C)C)n2)CCC3)cc1OCCO` [Compound 191, N-tert-butyl-2-({2-[4-(2-hydroxyethoxy)-5-methylpyridin-2-yl]-5H,6H,7H-cyclopenta[d]pyrimidin-4-yl}(methyl)amino)acetamide], the pEC50 was found to be 7.
